Key:
Type in all cases: functional
Meloidogyne incognita [1] = assay: Nematicidal activity against Meloidogyne incognita (root-knot nematode) in cucumber growing fields exposed to 180 L/ha compound fumigation treatment assessed as root galling index measured 20 days after compound treatment (reference value: 8.72 root galling index)
Solanum lycopersicum [2] = assay: Increase in crop yield in Solanum lycopersicum (tomato) plants exposed to 90 L/ha compound fumigation treatment assessed as medium fruit yield (reference value: 32.3 ton/ha)
Meloidogyne incognita [3] = assay: Nematicidal activity against Meloidogyne incognita (root-knot nematode) in tomato growing fields exposed to 90 L/ha compound fumigation treatment assessed as root galling index measured 20 days after compound treatment (reference value: 8.51 root galling index)
Solanum lycopersicum [4] = assay: Increase in plant height of Solanum lycopersicum (tomato) exposed to 90 L/ha compound fumigation treatment measured 30 days after compound treatment (reference value: 28.4 cm)
Cucumis sativus [5] = assay: Increase in plant height of Cucumis sativus (cucumber) exposed to 180 L/ha compound fumigation treatment measured 30 days after compound treatment (reference value: 85.6 cm)
Solanum lycopersicum [6] = assay: Increase in crop yield in Solanum lycopersicum (tomato) plants exposed to 180 L/ha compound fumigation treatment assessed as medium fruit yield (reference value: 32.3 ton/ha)
Solanum lycopersicum [7] = assay: Increase in crop yield in Solanum lycopersicum (tomato) plants exposed to 180 L/ha compound fumigation treatment assessed as marketable yield fruit yield (reference value: 51.3 ton/ha)
Meloidogyne incognita [8] = assay: Nematicidal activity against Meloidogyne incognita (root-knot nematode) in cucumber growing fields exposed to 120 L/ha compound fumigation treatment assessed as root galling index measured 20 days after compound treatment (reference value: 8.72 root galling index)
Meloidogyne incognita [9] = assay: Nematicidal activity against Meloidogyne incognita (root-knot nematode) in cucumber growing fields exposed to 90 L/ha compound fumigation treatment assessed as root galling index measured 20 days after compound treatment (reference value: 8.72 root galling index)
Capsella bursa-pastoris [10] = assay: Herbicidal activity against Capsella bursa-pastoris in cucumber plants fields exposed to 120 L/ha compound fumigation treatment assessed as hand weeding time per plot (reference value: 258.3 hr/ha)
Solanum lycopersicum [11] = assay: Increase in plant height of Solanum lycopersicum (tomato) exposed to 180 L/ha compound fumigation treatment measured 50 days after compound treatment (reference value: 86.2 cm)
Solanum lycopersicum [12] = assay: Increase in crop yield in Solanum lycopersicum (tomato) plants exposed to 90 L/ha compound fumigation treatment assessed as extra-large fruit yield (reference value: 3.8 ton/ha)
Digitaria sanguinalis [13] = assay: Herbicidal activity against Digitaria sanguinalis (hairy crabgrass) in tomato plants fields exposed to 120 L/ha compound fumigation treatment assessed as hand weeding time per plot relative to untreated control
Capsella bursa-pastoris [14] = assay: Herbicidal activity against Capsella bursa-pastoris in tomato plants fields exposed to 120 L/ha compound fumigation treatment assessed as hand weeding time per plot (reference value: 243.3 hr/ha)
Arenaria serpyllifolia [15] = assay: Herbicidal activity against Arenaria serpyllifolia in tomato plants fields exposed to 90 L/ha compound fumigation treatment assessed as hand weeding time per plot (reference value: 243.3 hr/ha)
Digitaria sanguinalis [16] = assay: Herbicidal activity against Digitaria sanguinalis (hairy crabgrass) in tomato plants fields exposed to 180 L/ha compound fumigation treatment assessed as hand weeding time per plot relative to untreated control
Solanum lycopersicum [17] = assay: Increase in crop yield in Cucumis sativus (cucumber) plants exposed to 120 L/ha compound fumigation treatment assessed as marketable yield fruit yield (reference value: 65.3 ton/ha)
Meloidogyne incognita [18] = assay: Nematicidal activity against Meloidogyne incognita (root-knot nematode) in tomato growing fields exposed to 120 L/ha compound fumigation treatment assessed as root galling index measured 20 days after compound treatment (reference value: 8.51 root galling index)
Capsella bursa-pastoris [19] = assay: Herbicidal activity against Capsella bursa-pastoris in tomato plants fields exposed to 180 L/ha compound fumigation treatment assessed as hand weeding time per plot (reference value: 243.3 hr/ha)
Cucumis sativus [20] = assay: Increase in plant height of Cucumis sativus (cucumber) exposed to 90 L/ha compound fumigation treatment measured 50 days after compound treatment (reference value: 103.2 cm)
Solanum lycopersicum [21] = assay: Increase in plant height of Solanum lycopersicum (tomato) exposed to 120 L/ha compound fumigation treatment measured 50 days after compound treatment (reference value: 86.2 cm)
Solanum lycopersicum [22] = assay: Increase in plant height of Solanum lycopersicum (tomato) exposed to 120 L/ha compound fumigation treatment measured 30 days after compound treatment (reference value: 28.4 cm)
Cucumis sativus [23] = assay: Increase in plant height of Cucumis sativus (cucumber) exposed to 120 L/ha compound fumigation treatment measured 50 days after compound treatment (reference value: 103.2 cm)
Cucumis sativus [24] = assay: Increase in plant height of Cucumis sativus (cucumber) exposed to 180 L/ha compound fumigation treatment measured 50 days after compound treatment (reference value: 103.2 cm)
Solanum lycopersicum [25] = assay: Increase in crop yield in Cucumis sativus (cucumber) plants exposed to 120 L/ha compound fumigation treatment assessed as medium fruit yield (reference value: 38.6 ton/ha)
Arenaria serpyllifolia [26] = assay: Herbicidal activity against Arenaria serpyllifolia in tomato plants fields exposed to 180 L/ha compound fumigation treatment assessed as hand weeding time per plot relative to untreated control
Solanum lycopersicum [27] = assay: Increase in crop yield in Solanum lycopersicum (tomato) plants exposed to 90 L/ha compound fumigation treatment assessed as large fruit yield (reference value: 15.2 ton/ha)
Solanum lycopersicum [28] = assay: Increase in crop yield in Solanum lycopersicum (tomato) plants exposed to 180 L/ha compound fumigation treatment assessed as large fruit yield (reference value: 15.2 ton/ha)
Digitaria sanguinalis [29] = assay: Herbicidal activity against Digitaria sanguinalis (hairy crabgrass) in cucumber plants fields exposed to 180 L/ha compound fumigation treatment assessed as hand weeding time per plot (reference value: 258.3 hr/ha)
Capsella bursa-pastoris [30] = assay: Herbicidal activity against Capsella bursa-pastoris in cucumber plants fields exposed to 120 L/ha compound fumigation treatment assessed as hand weeding time per plot relative to untreated control
Digitaria sanguinalis [31] = assay: Herbicidal activity against Digitaria sanguinalis (hairy crabgrass) in cucumber plants fields exposed to 90 L/ha compound fumigation treatment assessed as hand weeding time per plot (reference value: 258.3 hr/ha)
Meloidogyne incognita [32] = assay: Nematicidal activity against Meloidogyne incognita (root-knot nematode) in tomato growing fields exposed to 180 L/ha compound fumigation treatment assessed as root galling index measured 20 days after compound treatment (reference value: 8.51 root galling index)
Solanum lycopersicum [33] = assay: Increase in crop yield in Solanum lycopersicum (tomato) plants exposed to 120 L/ha compound fumigation treatment assessed as large fruit yield (reference value: 15.2 ton/ha)
Solanum lycopersicum [34] = assay: Increase in crop yield in Cucumis sativus (cucumber) plants exposed to 120 L/ha compound fumigation treatment assessed as large fruit yield (reference value: 19.5 ton/ha)
Capsella bursa-pastoris [35] = assay: Herbicidal activity against Capsella bursa-pastoris in tomato plants fields exposed to 120 L/ha compound fumigation treatment assessed as hand weeding time per plot relative to untreated control
Solanum lycopersicum [36] = assay: Increase in crop yield in Cucumis sativus (cucumber) plants exposed to 90 L/ha compound fumigation treatment assessed as extra-large fruit yield (reference value: 7.2 ton/ha)

Cl/C=C/CCl [1,3-DICHLOROPROPENE]
Root_galling_index (Meloidogyne incognita [1]): 2.02
Crop_yield (Solanum lycopersicum [2]): 38.7 tons/ha
Root_galling_index (Meloidogyne incognita [3]): 3.28
Activity (Solanum lycopersicum [4]): 32.4 cm
Activity (Cucumis sativus [5]): 105.6 cm
Crop_yield (Solanum lycopersicum [6]): 45.3 tons/ha
Crop_yield (Solanum lycopersicum [7]): 76.3 tons/ha
Root_galling_index (Meloidogyne incognita [8]): 2.92
Root_galling_index (Meloidogyne incognita [9]): 4.28
Time (Capsella bursa-pastoris [10]): 74.4 hr/ha
Activity (Solanum lycopersicum [11]): 117.8 cm
Crop_yield (Solanum lycopersicum [12]): 4.8 tons/ha
Activity (Digitaria sanguinalis [13]): 45%
Time (Capsella bursa-pastoris [14]): 66.4 hr/ha
Time (Arenaria serpyllifolia [15]): 85.6 hr/ha
Activity (Digitaria sanguinalis [16]): 45%
Crop_yield (Solanum lycopersicum [17]): 89.1 tons/ha
Root_galling_index (Meloidogyne incognita [18]): 2.84
Time (Capsella bursa-pastoris [19]): 55.6 hr/ha
Activity (Cucumis sativus [20]): 112.3 cm
Activity (Solanum lycopersicum [21]): 108.6 cm
Activity (Solanum lycopersicum [22]): 37.9 cm
Activity (Cucumis sativus [23]): 120.5 cm
Activity (Cucumis sativus [24]): 130.7 cm
Crop_yield (Solanum lycopersicum [25]): 49.1 tons/ha
Activity (Arenaria serpyllifolia [26]): 45%
Crop_yield (Solanum lycopersicum [27]): 18.9 tons/ha
Crop_yield (Solanum lycopersicum [28]): 22.6 tons/ha
Time (Digitaria sanguinalis [29]): 62.3 hr/ha
Activity (Capsella bursa-pastoris [30]): 45%
Time (Digitaria sanguinalis [31]): 90.5 hr/ha
Root_galling_index (Meloidogyne incognita [32]): 2.34
Crop_yield (Solanum lycopersicum [33]): 19.2 tons/ha
Crop_yield (Solanum lycopersicum [34]): 27.9 tons/ha
Activity (Capsella bursa-pastoris [35]): 45%
Crop_yield (Solanum lycopersicum [36]): 11.5 tons/ha

Reference: ChEMBL document CHEMBL3046912, “Effectiveness of 1,3-dichloropropene as an alternative to methyl bromide in rotations of tomato (Solanum lycopersicum) and cucumber (Cucumis sativus) in China” (2012)
